Laboratory results reported in US20260085280A1, “ADAPTATION AND PROCESS OPTIMIZATION OF MICROORGANISMS FOR GROWTH IN HEMICELLULOSIC DERIVED CARBOHYDRATES” (MARA RENEWABLES CORPORATION, priority 2018, published 2026).

Assays:
Gxs1 7-7 = test: xylose depletion flask assay, medium spiked with increasing concentrations of xylitol; format: cell-based, Thraustochytrium species (ONC-T18); settings: 20 g/L xylose and 8 g/L glucose; for Biomass / Xylose used / Xylose used (%): after 144 hours
Protocol: The impact of xylitol concentration on glucose and xylose consumption was determined using 7-7, Gxs1 7-7, and 51-7 strains. […] In xylose depletion flask assays, Gxs1 7-7 was used with medium containing 20 g/L xylose and 8 g/L glucose and spiked with increasing concentrations of xylitol as shown in Table 4. The values in Table 4 are the total amount of biomass produced and xylose used after 144 hours. The glucose used amounts are shown at 48 hours.

[1] = system: 7-7, Gxs1 7-7, and 51-7 strains; test: impact of xylitol concentration on glucose and xylose consumption; format: cell-based, Thraustochytrium species (ONC-T18); settings: FIGS. 2A-2D and Table 4
Protocol: The impact of xylitol concentration on glucose and xylose consumption was determined using 7-7, Gxs1 7-7, and 51-7 strains.

## OC[C@@H](O)[C@H](O)[C@@H](O)CO [Xylitol, xylitol]
Gxs1 7-7; 1 g L^−1 xylitol
  Glucose used (%) @48 hr: 99.9%
  Glucose used (g) @48 hr: 9.04 g
  Biomass: 7.225 g/L
  Xylose used: 11.03 g
  Xylose used (%): 56.2%
Gxs1 7-7; 5 g L^−1 xylitol
  Glucose used (%) @48 hr: 43.7%
  Glucose used (g) @48 hr: 3.99 g
  Biomass: 6.683 g/L
  Xylose used: 5.06 g
  Xylose used (%): 25.5%
Gxs1 7-7; 10 g L^−1 xylitol
  Glucose used (%) @48 hr: 18.6%
  Glucose used (g) @48 hr: 1.66 g
  Biomass: 6.425 g/L
  Xylose used: 4.24 g
  Xylose used (%): 22.0%
Gxs1 7-7; 15 g L^−1 xylitol
  Glucose used (%) @48 hr: 12.8%
  Glucose used (g) @48 hr: 1.13 g
  Biomass: 6.592 g/L
  Xylose used: 3.67 g
  Xylose used (%): 19.3%
[1]
  xylitol concentration to be kept in order to avoid growth inhibition: lower than 1 g/L
